Data as given in ChEMBL document CHEMBL3885861, “Open TG-GATES”.

Species: Rattus norvegicus
Test: Open TG-GATES - Regimen: Single
Format: toxicity, organism-based, Sprague-Dawley
Set-up: regimen Single, gender Male, age 6 weeks
Conditions: in vivo, po, 100 mg/kg, route gavage, dose level Low; for APTT / Bas / Eos / Fbg / Hb / Ht / Lym / MCH / MCHC / MCV / Mono / Neu / PT / Plat / RBC / Ret / WBC: tissue Blood; for KIDNEY_L / KIDNEY_R / KIDNEY_TOTAL: tissue Kidney; for LIVER: tissue Liver; for A/G / ALP / ALT / AST / BUN / CRE / Ca / Cl / DBIL / GLC / IP / K / LDH / Na / PL / RALB / TBIL / TC / TG / TP / gamma-GTP: tissue Plasma

## CC(=O)Nc1ccc2c(c1)Cc1ccccc1-2 [2-ACETYLAMINOFLUORENE]
3 h
  TERMINAL_BW: 222.2 g
  APTT: 19.4 s
  Bas: 0.8%
  Eos: 1%
  Fbg: 228.6 mg/dL
  Hb: 14.1 g/dL
  Ht: 40.7%
  Lym: 76.4%
  MCH: 21.6 pg
  MCHC: 34.7%
  MCV: 62.3 fL
  Mono: 2%
  Neu: 19.2%
  PT: 11.6 s
  Plat: 114.3 x10_4/uL
  RBC: 653.2 x10_4/ul
  Ret: 7%
  WBC: 73.8 x10_2/uL
  KIDNEY_L: 1 g
  KIDNEY_R: 1 g
  KIDNEY_TOTAL: 2 g
  LIVER: 10.4 g
  A/G: 1.8
  ALP: 1019.4 IU/L
  ALT: 37.6 IU/L
  AST: 77 IU/L
  BUN: 13.2 mg/dL
  CRE: 0.4 mg/dL
  Ca: 10.7 mg/dL
  Cl: 103.4 meq/L
  DBIL: 0.07 mg/dL
  GLC: 212.8 mg/dL
  IP: 10.8 mg/dL
  K: 4 meq/L
  LDH: 203.8 IU/L
  Na: 141.4 meq/L
  PL: 151 mg/dL
  RALB: 3.6 g/dL
  TBIL: 0.1 mg/dL
  TC: 92.6 mg/dL
  TG: 45.8 mg/dL
  TP: 5.6 g/dL
  gamma-GTP: 1 IU/L
6 h
  TERMINAL_BW: 219.9 g
  APTT: 20.9 s
  Bas: 0.4%
  Eos: 1%
  Fbg: 221.6 mg/dL
  Hb: 13.9 g/dL
  Ht: 40.1%
  Lym: 81.6%
  MCH: 21.3 pg
  MCHC: 34.6%
  MCV: 61.5 fL
  Mono: 2.4%
  Neu: 14.2%
  PT: 12.2 s
  Plat: 132.9 x10_4/uL
  RBC: 652 x10_4/ul
  Ret: 7%
  WBC: 82.3 x10_2/uL
  KIDNEY_L: 1 g
  KIDNEY_R: 1 g
  KIDNEY_TOTAL: 2 g
  LIVER: 9.9 g
  A/G: 1.6
  ALP: 792.8 IU/L
  ALT: 31.6 IU/L
  AST: 70.6 IU/L
  BUN: 10 mg/dL
  CRE: 0.4 mg/dL
  Ca: 10.5 mg/dL
  Cl: 101.8 meq/L
  DBIL: 0.064 mg/dL
  GLC: 195.6 mg/dL
  IP: 9.4 mg/dL
  K: 4.1 meq/L
  LDH: 169 IU/L
  Na: 140.4 meq/L
  PL: 135.6 mg/dL
  RALB: 3.4 g/dL
  TBIL: 0.1 mg/dL
  TC: 79.2 mg/dL
  TG: 45.2 mg/dL
  TP: 5.6 g/dL
  gamma-GTP: 1 IU/L
